Among the test systems are UACC-257; A549; UO-31; A498; COLO 205; OVCAR-5; Malme-3M; RXF 393; OVCAR-8; KM12; SN12C; HCC 2998; CAKI-1; SF-295; RPMI-8226; UACC-62; NCI-H522.
Common to all, as to experiment: NCI anticancer screen, dose series, 48 h

Data on 13 molecules can be found in ChEMBL document CHEMBL1201862, “PubChem BioAssay data set” (2004).

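Protocol summary: plate cells (96-well), add compound at 5 concentrations, incubate 48 h, interpolate endpoints linearly. GI50 = concentration required for 50% inhibition of growth.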 Activity calls are given as the source filed them. No stated cut-off is given here; in the data, active = GI50 up to about 1.1 µM and inactive = higher. Some results are limits rather than exact numbers.

With `COc1ccc2c(c1OC)C1=C(C2=O)c2cc3c(cc2CCN1)OCO3`, the GI50 in the experiment with UACC-257 is 34.5 µM (inactive); in the experiment on A549, 47.2 µM (inactive); with UO-31 it was 48.3 µM (inactive); with A498, 55.8 µM (inactive); in the experiment with COLO 205 it was 4.08 µM (inactive); in the experiment with OVCAR-5 it was 23.7 µM (inactive). Moreover, the GI50 with Malme-3M was 69.3 µM (inactive); in the experiment on RXF 393, 42.7 µM (inactive); in the experiment with OVCAR-8 it was 39.9 µM (inactive); with KM12 it was 20.4 µM (inactive); in the experiment on SN12C, 6.76 µM (inactive); with HCC 2998, 32.1 µM (inactive). Moreover, the GI50 in the experiment with CAKI-1 is 27.3 µM (inactive); in the experiment on SF-295, 33.5 µM (inactive); in the experiment with RPMI-8226 it was 23.1 µM (inactive); with UACC-62, 35.4 µM (inactive).

On to `CC(C)(C)C(=O)CC(=O)C(C)(C)C.CC(C)(C)C(=O)CC(=O)C(C)(C)C.[SiH4]`, for which the GI50 was 2.44 µM (inactive) with UACC-257; 2.95 µM (inactive) in the experiment with A549; 1.99 µM (inactive) in the experiment with UO-31; 2.81 µM (inactive) in the experiment on A498; 1.46 µM (inactive) in the experiment on COLO 205; 2.21 µM (inactive) in the experiment on OVCAR-5. In addition, the GI50 in the experiment with Malme-3M was 6.12 µM (inactive); with OVCAR-8, 2.92 µM (inactive); in the experiment on KM12, 0.767 µM (active); with SN12C, 1.18 µM (inactive); in the experiment on HCC 2998, 0.393 µM (active); in the experiment with CAKI-1, 0.579 µM (active). Further, the GI50 is 1.01 µM (active) with SF-295, 0.299 µM (active) with RPMI-8226, 0.573 µM (active) in the experiment on NCI-H522 and 2.99 µM (inactive) with UACC-62.

As to `Cc1cccc2c1NC(c1c(C)[nH]c3ccccc13)C2` (configuration not stated), the GI50 was > 100 µM (inactive) in the experiment with UACC-257; > 100 µM (inactive) in the experiment with A549; 64.4 µM (inactive) with UO-31; > 100 µM (inactive) in the experiment with A498; 56 µM (inactive) in the experiment on COLO 205; > 100 µM (inactive) with OVCAR-5. Moreover, the GI50 with Malme-3M was > 100 µM (inactive); in the experiment with RXF 393, 56.4 µM (inactive); with OVCAR-8 it was > 100 µM (inactive); with KM12 it was 62.4 µM (inactive); in the experiment with SN12C, > 100 µM (inactive); in the experiment with HCC 2998, > 100 µM (inactive). For the same molecule, the GI50 in the experiment with SF-295 is 54.8 µM (inactive); in the experiment on RPMI-8226, > 100 µM (inactive); in the experiment on NCI-H522, > 100 µM (inactive); in the experiment on UACC-62, 78.2 µM (inactive).

Regarding `COC1C=CC23c4cc5c(cc4C(O)OC2CN(C)C3C1)OCO5` (configuration not stated), the GI50 in the experiment with UACC-257 was 1.77 µM (inactive); in the experiment with A549, 2.4 µM (inactive); in the experiment on UO-31, 2.69 µM (inactive); in the experiment with A498, 3.1 µM (inactive); with COLO 205 it was 1.08 µM (active); in the experiment on OVCAR-5, 3.34 µM (inactive). Further, the GI50 was 1.9 µM (inactive) in the experiment with Malme-3M; 2.16 µM (inactive) with OVCAR-8; 2.13 µM (inactive) in the experiment with KM12; 2.35 µM (inactive) in the experiment on SN12C; 2.29 µM (inactive) in the experiment on HCC 2998; 2.98 µM (inactive) with CAKI-1. In addition, the GI50 with SF-295 was 1.69 µM (inactive); with RPMI-8226, 2.56 µM (inactive); in the experiment with NCI-H522 it was 2 µM (inactive); with UACC-62 it was 4.13 µM (inactive).

`COc1ccc(/C=N/Nc2nc(-c3cc4oc(=O)n(C)c4cc3Cl)cs2)cc1OC`: the GI50 with UACC-257 is 4.27 µM (inactive); with A549 it was 4.35 µM (inactive); in the experiment on UO-31, 13.6 µM (inactive); with COLO 205, 81.8 µM (inactive); with OVCAR-5, > 100 µM (inactive); in the experiment with Malme-3M, 10.5 µM (inactive). The GI50 is 15.4 µM (inactive) in the experiment with RXF 393; 36.6 µM (inactive) in the experiment on OVCAR-8; 18.8 µM (inactive) in the experiment with KM12; 17.9 µM (inactive) with SN12C; 35.6 µM (inactive) in the experiment with HCC 2998; 79.3 µM (inactive) in the experiment on CAKI-1. The GI50 in the experiment on SF-295 was 9.23 µM (inactive); with RPMI-8226, 8.26 µM (inactive); in the experiment on UACC-62, 16.8 µM (inactive).

Take `O=C1Cc2c([nH]c3ccccc23)-c2ccccc2N1` [PAULLONE]: the GI50 in the experiment on UACC-257 is 59.2 µM (inactive); in the experiment on A549, 36.4 µM (inactive); in the experiment on UO-31, 27.2 µM (inactive); with A498 it was 67.8 µM (inactive); with COLO 205, 22 µM (inactive); with OVCAR-5, 26.8 µM (inactive). The GI50 in the experiment on Malme-3M is 61.1 µM (inactive); in the experiment on RXF 393, 16.1 µM (inactive); in the experiment on OVCAR-8, 40.1 µM (inactive); in the experiment with KM12, 18.3 µM (inactive); with SN12C, 38.2 µM (inactive); in the experiment with HCC 2998 it was 19.9 µM (inactive). Also, the GI50 with CAKI-1 is 42.4 µM (inactive); with SF-295 it was 37.8 µM (inactive); with RPMI-8226 it was 20.2 µM (inactive); with NCI-H522, 17.3 µM (inactive).

On to `COc1ccc(C2=NN(C(=O)COc3ccc(Cl)cc3)C(O)(c3ccc(Cl)cc3)C2)cc1` (configuration not stated), for which the GI50 with UACC-257, in the experiment with A549, in the experiment on UO-31, with COLO 205, with OVCAR-5 and in the experiment on Malme-3M was > 100 µM (inactive) each time. Also, the GI50 in the experiment on OVCAR-8, with KM12, in the experiment with SN12C, in the experiment on HCC 2998, in the experiment on CAKI-1 and with SF-295 was > 100 µM (inactive) each time. Besides, the GI50 in the experiment on RPMI-8226, with NCI-H522 and with UACC-62 was > 100 µM (inactive) throughout.

With `COC12OCCN(C)C1=CC(=O)C1(C)N=NCC12` (configuration not stated), the GI50 with UACC-257, with A549, in the experiment with UO-31, with A498, in the experiment on COLO 205 and in the experiment with Malme-3M was > 100 µM (inactive) each time. Besides, the GI50 in the experiment with RXF 393, with OVCAR-8, in the experiment on KM12, in the experiment on SN12C, in the experiment with HCC 2998 and with CAKI-1 was > 100 µM (inactive) in each case. Besides, the GI50 in the experiment on SF-295, in the experiment with RPMI-8226, in the experiment with NCI-H522 and in the experiment on UACC-62 was > 100 µM (inactive) each time.

As to `N=C(N)NCCCC(Nc1c2ccccc2nc2ccccc12)C(=O)O` (configuration not stated), the GI50 with UACC-257, in the experiment on A549, in the experiment on COLO 205, in the experiment on OVCAR-5, in the experiment with Malme-3M and in the experiment with RXF 393 was > 100 µM (inactive) each time. The GI50 in the experiment on OVCAR-8, in the experiment on KM12, with SN12C, in the experiment with HCC 2998, with CAKI-1 and in the experiment with SF-295 was > 100 µM (inactive) in each case. In addition, the GI50 was 33.1 µM (inactive) in the experiment with RPMI-8226 and 44 µM (inactive) in the experiment on NCI-H522.

For `CCCCc1c2c(nc3c1CCc1cc4cc5c(nc4nc1-3)-c1nc3c(c(CCCC)c1CC5)CCCC3)CCCC2`, the GI50 with UACC-257 was 59.8 µM (inactive); with A549, 20.5 µM (inactive); in the experiment with UO-31 it was 68.5 µM (inactive); with COLO 205, 35.4 µM (inactive); with Malme-3M it was 38.6 µM (inactive); with RXF 393, 6.56 µM (inactive). In addition, the GI50 is 39.6 µM (inactive) with OVCAR-8; 48.1 µM (inactive) in the experiment with KM12; 56.4 µM (inactive) in the experiment on SN12C; 62.2 µM (inactive) in the experiment with HCC 2998; 15.7 µM (inactive) in the experiment on SF-295; 27 µM (inactive) in the experiment with RPMI-8226. In addition, the GI50 with NCI-H522 is 43.7 µM (inactive); in the experiment on UACC-62, 19.6 µM (inactive).

Consider `C=C1c2[nH]c3c([N+](=O)[O-])c(OC)ccc3c2CCN1C(C)=O`, for which the GI50 in the experiment on UACC-257, with A549, in the experiment with UO-31, in the experiment with A498, in the experiment with COLO 205 and in the experiment with OVCAR-5 was > 100 µM (inactive) in each case. The GI50 in the experiment on RXF 393 is > 100 µM (inactive); in the experiment on OVCAR-8 it was > 100 µM (inactive); in the experiment on KM12 it was > 100 µM (inactive); with SN12C, > 100 µM (inactive); in the experiment on HCC 2998, > 100 µM (inactive); in the experiment with CAKI-1, 21.6 µM (inactive). In addition, the GI50 with SF-295 was > 100 µM (inactive); with RPMI-8226, > 100 µM (inactive); in the experiment on NCI-H522 it was > 100 µM (inactive); in the experiment on UACC-62, 61.9 µM (inactive).

`COC1(OC)C2(Cl)C(Cl)=C(Cl)C1(Cl)C1C2C2CC1(C(=O)O)c1ccccc12` (configuration not stated): the GI50 was 14.6 µM (inactive) in the experiment on UACC-257; 28.1 µM (inactive) with A549; 21.9 µM (inactive) with UO-31; 81.1 µM (inactive) in the experiment with A498; 23.9 µM (inactive) with COLO 205; > 10 µM (inactive) in the experiment on OVCAR-5. Besides, the GI50 in the experiment on Malme-3M was 16 µM (inactive); in the experiment on OVCAR-8 it was 27.4 µM (inactive); in the experiment with SN12C, 20.5 µM (inactive); in the experiment with HCC 2998, 22.9 µM (inactive); with CAKI-1 it was 31.3 µM (inactive); in the experiment with SF-295, 25.4 µM (inactive). Moreover, the GI50 in the experiment on RPMI-8226 is 17 µM (inactive); in the experiment with UACC-62 it was 16.5 µM (inactive).

Regarding `CC(O[Si](C)(C)C)C1C=CC(C)n2c(=O)n(-c3ccccc3)c(=O)n21` (configuration not stated), the GI50 in the experiment with A549, in the experiment on UO-31, in the experiment with COLO 205, in the experiment with OVCAR-5, in the experiment with Malme-3M and in the experiment on RXF 393 was > 100 µM (inactive) in each case. In addition, the GI50 with OVCAR-8, in the experiment on KM12, with HCC 2998, in the experiment with CAKI-1, with SF-295 and in the experiment on RPMI-8226 was > 100 µM (inactive) each time. Also, in the experiment with UACC-62, the GI50 was > 100 µM (inactive).
